Converted amounts (≈) assume the structure as drawn. Like-named read-outs stand apart in the source and are kept apart here. One block for each compound: values may come before it.
Key:
[1] = test system: Acinetobacter baumannii strains resistant to Polymyxin B and Colistin; conditions: Mueller-Hinton medium, 37° C., 24 h
Excerpt: (§1) The coupling procedure used 5 equivalents of Fmoc-D-amino acid or Fmoc-L-amino acid and HCTU (O-(1H-6-chlorobenzotriazole-1-yl)-1,1,3,3-tetramethyluronium hexafluorophosphate) and 6-Cl-HOBt (1-hydroxy-6-chloro-benztriazole) at 4.5 equivalents in DMF (Fisher Scientific, Denver, Colo.) and N-diisopropylethylamine (DIPEA) 10 equivalents (Oakwood Products, Inc., Estill, S.C.) in N-methyl-2-pyrrolidinone (NMP) (Fisher Scientific, Denver, Colo.) with the first and second couplings at room temperature for 30 min each. The deprotection procedure (removal of Fmoc protecting group) was carried out by treatment of the resin with 0.1 M HOBt (1-hydroxybenzotriazole) in DMF with 20% piperidine for 30 min. […] The resin was removed by filtration and peptide was precipitated with ice-cooled ethyl ether on ice for 15 min. Ether was decanted, the peptide was washed twice with ether and redissolved in acetonitrile/water (1:1, with 0.2% TFA) and the solution lyophilized to obtain the crude peptide. • Analytical and Preparative Purification by Reversed-Phase Chromatography: Analytical RP-HPLC: Column, Luna C18 (2), 250×4.6 mm I.D., 5 μm particle size, 100 Å pore size from Phenomenex (Torrance, Calif.). Run conditions: linear AB gradient (1% acetonitrile/min, starting from 2% acetonitrile) at a flow-rate of 1 ml/min, where eluent A is 0.2% aq. TFA and eluent B is 0.18% TFA in acetonitrile; temperature, 30° C. Preparative RP-HPLC: Peptides were dissolved in 0.2% aq. TFA containing 2% acetonitrile to a final concentration of 10 mg/ml. Following filtration through a 0.45 μm Millipore filter and subsequently through a 0.22 μm filter, the peptide solutions were loaded onto the column via multiple 20-ml injections into a 20-ml injection loop at a flow-rate of 10 ml/min. Column, Luna C18 (2), 250×30 mm I.D., 5 um particle size, 100 Å pore size from Phenomenex. Run conditions: 2% acetonitrile/min gradient up to an acetonitrile concentration 10% below that required to elute the peptide during analytical RP-HPLC, then shallow gradient elution (0.05% or 0.1% acetonitrile/min depending on the complexity of impurities near the product of interest on the analytical run of the crude peptide) at a flow-rate of 10 ml/min (same eluents as shown above for analytical RP-HPLC); at room temperature. • Temperature Profiling of Peptides on Reversed-phase HPLC to Measure Dimerization and Oligomerization: Purified peptides were analyzed on an Agilent 1200 series liquid chromatograph for temperature profiling using a Zorbax 300 SB-C8 column (150 mm×2.1 mm I.D.; 5 μm particle size, 300 Å pore size) from Agilent Technologies. […] Temperature profiling was carried out on peptide mixtures run at each temperature in 2° C. increments from 5° C. to 41° C. and 10° C. increments from 5° C. to 75° C. Twenty minutes was allowed between runs for temperature equilibration. • Characterization of Helical Structure: The mean residue molar ellipticities of peptides were determined by circular dichroism (CD) spectroscopy, using a Jasco J-815 spectropolarimeter (Jasco Inc. Easton, Md., USA) at 5° C. under KP buffer (50 mM NaH2PO4/Na2HPO4/100 mM KCl, pH 7.0) as well as in the presence of an α-helix inducing solvent, 2,2,2-trifluoroethanol, TFE, (50 mM NaH2PO4/Na2HPO4/100 mM KCl, pH 7.0 buffer/50% TFE). A 10-fold dilution of an approximately 500 μM stock solution of the peptide analogs was loaded into a 0.1 cm quartz cell and its ellipticity scanned from 195 to 250 nm.

[2] = test system: Acinetobacter baumannii isolates resistant to classical antibiotics; assay type: cell-based
Excerpt: Thus, shortening the number of carbon atoms between the side-chain amino group and the α-carbon atom from four (Lys) to one (diaminopropionic acid) had very little effect on antibacterial activity (Table 2). We also determined the antibacterial activity of our five AMPs against 20 additional Acinetobacter baumannii isolates from four continents, 12 different countries and 17 different cities that were resistant to 18 different antibiotics. […] Thus, it is very clear that changing the type of positively-charged residue on the polar face of these AMPs had very little effect on the antibacterial activities.

A. baumannii strain 649 = assay type: cell-based, Acinetobacter baumannii; conditions: MH medium, no serum
Method: Hemoglobin release was determined spectrophotometrically at 570 nm.
Because only unbound AMP is available to interact with the therapeutic target, the extent of binding between AMPs and serum proteins can have significant effects on efficacy of these drugs. […] This assay estimates the in vivo bioavailability of our AMPs. […] An increase in MIC in the presence of serum is attributed to inhibition of antimicrobial activity due to binding to serum proteins.

human red blood cells = assay: Hemolytic activity on human red blood cells
Method: For comparison, the inventors also determined the hemolytic activity after 18 hours at 37° C. Hemolysis can be determined with red blood cells (RBC) from various species including human red blood cells (hRBC).
as §1

[3] = isolates resistant to classical antibiotics

Compound: CC(=O)N[C@H](CCCCN)C(=O)N[C@H](CC(C)C)C(=O)N[C@H](CCCN)C(=O)N[C@H](CO)C(=O)N[C@H](CC(C)C)C(=O)N[C@H](CC(C)C)C(=O)N[C@H](CCCN)C(=O)N[C@@H](C(=O)N[C@H](CC(C)C)C(=O)N[C@H](CO)C(=O)N[C@H](CCCN)C(=O)N[C@H](C)C(=O)N[C@H](C)C(=O)N[C@H](C)C(=O)N[C@H](C)C(=O)N[C@H](C)C(=O)N[C@H](CC(C)C)C(=O)N[C@H](CCCN)C(=O)N[C@@H](C(=O)N[C@H](CC(C)C)C(=O)N[C@H](CC(C)C)C(=O)N[C@H](CCCN)C(=O)N[C@H](C)C(=O)N[C@H](CC(C)C)C(=O)N[C@H](CO)C(=O)N[C@H](CCCN)C(N)=O)[C@H](C)O)[C@H](C)O [D85(K13A/K16A)-(Lys^1-6Orn-1), Ac-KL(Orn)SLL(Orn)TLS(Orn)AAAAAL(Orn)TLL(Orn)ALS(Orn)-amide]
MIC MB9941 ([1]; strain MB9941): 2.9 µM (≈ 7.74 µg/mL)
MIC MB9949 ([1]; strain MB9949): 2.9 µM (≈ 7.74 µg/mL)
MIC MB9951 ([1]; strain MB9951): 1.5 µM (≈ 4 µg/mL)
MIC MB9952 ([1]; strain MB9952): 1.5 µM (≈ 4 µg/mL)
MIC MB9953 ([1]; strain MB9953): 1.5 µM (≈ 4 µg/mL)
MIC MB9955 ([1]; strain MB9955): 1.5 µM (≈ 4 µg/mL)
MIC MB9963 ([1]; strain MB9963): 2.9 µM (≈ 7.74 µg/mL)
MIC 101887 ([2]; strain 101887 (lower line)): 3.0 µM (≈ 8 µg/mL)
MIC 961997 ([2]; strain 961997 (lower line)): 1.5 µM (≈ 4 µg/mL)
MIC 963618 ([2]; strain 963618 (lower line)): 1.5 µM (≈ 4 µg/mL)
MIC 964304 ([2]; strain 964304 (lower line)): 1.5 µM (≈ 4 µg/mL)
MIC 977751 ([2]; strain 977751 (lower line)): 6.0 µM (≈ 16 µg/mL)
MIC 981653 ([2]; strain 981653 (lower line)): 1.5 µM (≈ 4 µg/mL)
MIC 1002956 ([2]; strain 1002956 (lower line)): 1.5 µM (≈ 4 µg/mL)
MIC 1007660 ([2]; strain 1007660 (lower line)): 1.5 µM (≈ 4 µg/mL)
MIC 1010282 ([2]; strain 1010282 (lower line)): 1.5 µM (≈ 4 µg/mL)
MIC 1035166 ([2]; strain 1035166 (lower line)): 1.5 µM (≈ 4 µg/mL)
MIC No serum (A. baumannii strain 649): 1.5 µM (≈ 4 µg/mL)

MIC 101887 [2, 3]: 0.7 µM (≈ 1.89 µg/mL)
MIC 961997 [2, 3]: 0.7 µM (≈ 1.89 µg/mL)
MIC 963618 [2, 3]: 0.7 µM (≈ 1.89 µg/mL)
MIC 964304 [2, 3]: 1.5 µM (≈ 4.05 µg/mL)
MIC 977751 [2, 3]: 0.7 µM (≈ 1.89 µg/mL)
MIC 981653 [2, 3]: 0.7 µM (≈ 1.89 µg/mL)
MIC 1002956 [2, 3]: 0.7 µM (≈ 1.89 µg/mL)
MIC 1007660 [2, 3]: 0.7 µM (≈ 1.89 µg/mL)
MIC 1010282 [2, 3]: 0.7 µM (≈ 1.89 µg/mL)
MIC 1035166 [2, 3]: 0.7 µM (≈ 1.89 µg/mL)
Compound: CC(=O)N[C@H](CCCCN)C(=O)N[C@H](CC(C)C)C(=O)N[C@@H](CCN)C(=O)N[C@H](CO)C(=O)N[C@H](CC(C)C)C(=O)N[C@H](CC(C)C)C(=O)N[C@@H](CCN)C(=O)N[C@@H](C(=O)N[C@H](CC(C)C)C(=O)N[C@H](CO)C(=O)N[C@@H](CCN)C(=O)N[C@H](C)C(=O)N[C@H](CCCCN)C(=O)N[C@H](C)C(=O)N[C@H](C)C(=O)N[C@H](CCCCN)C(=O)N[C@H](CC(C)C)C(=O)N[C@@H](CCN)C(=O)N[C@@H](C(=O)N[C@H](CC(C)C)C(=O)N[C@H](CC(C)C)C(=O)N[C@@H](CCN)C(=O)N[C@H](C)C(=O)N[C@H](CC(C)C)C(=O)N[C@H](CO)C(=O)N[C@@H](CCN)C(N)=O)[C@H](C)O)[C@H](C)O [D86(Lys^1-6Dab-1), Ac-KL(L-Dab)SLL(L-Dab)TLS(L-Dab)AKAAKL(L-Dab)TLL(L-Dab)ALS(L-Dab)-amide]
HC50 Fold Improvement (human red blood cells): >186
hemolytic activity against red blood cells from four blood donors (human red blood cells): very little hemolytic activity
HC50 (human red blood cells; red cells of human, 18 h): >742 µM
